Assay results reported in patent US20240158453A1, “Nucleic Acids That Manipulate Immune Pathways” (Children`s Medical Center Corporation, priority 2017, published 2024).
Starred links: 1 amine or outer side, 2 acyl side, 3 side chain; linkers in the order of their positions; H or OH if unused. Positions of bridges follow the written chain, without caps; N, C: chain ends. Non-standard residues stand in square brackets, D forms with d. Residues, ends and D or L forms follow the SMILES beside them. Chains are numbered I, II in the order given. *: point of attachment. Actinocin(9to1) = Cc1c2oc3c(C)ccc(C(=O)[*:1])c3nc-2c(C(=O)[*:2])c(N)c1=O; NMeV = CN[C@H](C(=O)O)C(C)C; Cbz = O=C(OCc1ccccc1)*; Sar = CNCC(=O)O; CH2F = FC*

Experiments:
primary BMDMs [1] = assay: Seahorse metabolic analysis (ECAR, OCR) of TLR-induced glycolysis; format: cell-based; details: for TLR-induced ECAR increase: primary BMDMs with inhibitor (2-DG 25 mM; Actinomycin D 1.5 μg/ml; BX795 5 μM; MRT67307 2.5 μM; Triciribine 20 μM), stimulated with LPS, P3C, R848; for ECAR / mitochondrial oxygen consumption (OCR): primary BMDMs or iBMDMs stimulated with the TLR ligand
Description: Seahorse Metabolic Analysis. Extracellular acidification rate (ECAR) and oxygen consumption rate (OCR) were measured with a Seahorse XFe96 Extracellular Flux Analyzer instrument primary BMDMs and iBMDMs
For real-time experiment, primary BMDMs (5×10^4 per well) and iBMDMs (7.5×10^4 per well) were seed in a Seahorse 96 well plate in complete DMEM medium. Cells were allowed to attach to the assay plate for 4-5 hours, then cells were washed one time with serum-free Seahorse Assay Medium and incubated in Seahorse Assay Medium containing 5% FBS, 10 mM Glucose and 2 mM Glutammine in 37° C. incubator without CO2 for 60 min. ECAR and OCR was measured under basal conditions, after treatment with TLR ligands (LPS 1 μg/ml; P3C 1 μg/ml; R848 1 μg/ml) or inhibitors (and their combination). In the assays which required pre-treatment with inhibitors, chemical inhibitors were injected into the wells by the Seahorse Analyzer, and the incubation time were allowed to proceed for 45 min, prior to the injection of TLR ligands. […] Data represent mean±SEM of triplicate wells.

glycolysis = assay: 2-DG treatment of TLR-activated cells (Example 6); format: cell-based
[2] = system: Myd88-/-/Trif-/- iBMDMs expressing MyD88-RIP3; assay: Microscopy imaging of cell morphology; format: cell-based, murine
Description: Microscopy imaging of cell morphology and live cell imaging. To determine cell morphology after TLR stimulation, Myd8^−/−/Trif^−/− iBMDMs expressing MyD88 and MyD88-RIP3 were seeded in 12-well plates (0.5×10^6 per well) and were subjected to indicated treatments (Staurosporine 1 μM; TLR ligands 1 μg/ml) to induce cell death. For static image capture, a Nikon Eclipse TS100 microscope was used with 40× magnification. Images were processed with the “NIS-Elements F” software. Representative images were chosen from at least three randomly chosen fields from one representative experiment of three independent experiments.

Myd88-/-/Trif-/- iBMDMs = assay: PI staining and LDH release quantification (TLR-induced necroptosis); format: cell-based, murine; details: MyD88-RIP3 expressing cells; GSK872 2.5 μM; Nec-1 5 μM; ZVAD 10 μM
Description: (§1) PI staining and LDH release quantification. For experiments measuring end-point PI staining, PI (5 μM) was included in the culture media to monitor transient pore formation at the last 30 min for each incubation period. A Tecan plate reader was used to measure PI staining (excitation 535 nm, emission 617 nm). Supernatants were assayed for LDH release freshly after stimulation time courses using the Pierce LDH cytotoxicity colorimetric assay kit per the manufacturer's instruction. The same Tecan plate reader was used to measure LDH release (absorbance 490 nm and 680 nm). Cells treated with detergent-containing lysis buffer were used as positive control for PI staining, the resulted supernatants from treated cells were used as positive control for LDH release quantification.
Generation of synthetic MyD88 molecules. To generate MyD88-NpLxIS and MyD88 CpLxIS alleles, the cDNA sequence encoding the STING pLxIS motif (340-378 a.a.) was fused in tandem then attached to the cDNA sequence encoding the MyD88 protein either at the 5-prime end (for MyD88-NpLxIS) or at the 3-prime end (for MyD88-CpLxIS). The fusion cDNAs were then synthesized as gBLOCKs via IDT. The mutant alleles were also synthesized as gBLOCKs. To generate the MyD88-RIP3 allele, the cDNA sequence encoding the full-length RIP3 was attached the MyD88-encoding cDNA sequence at the 3-prime end. The fusion cDNA was then synthesized as a gBLOCK via IDT. All synthetic DNA sequences were optimized to avoid internal repeats and for optimal expression in murine cells via the IDT online program.

primary BMDMs [3] = assay: LDH release from primary BMDMs stimulated with LPS in the presence of inhibitors; format: cell-based; details: 18 hr
Description: as §1

AKT = assay: Western analysis of AKT phosphorylation in primary BMDMs stimulated with TLR ligands; format: cell-based; details: primary WT BMDMs
Description: (§2) Western blotting and immunoprecipitation. For western analysis of signaling pathway activation, primary BMDMs (1×10^6) or iBMDMs (0.5×10^6) were seeded in 12 well plates and stimulated with ligands for indicated periods, and subsequently lysed in 300 μl 1×SDS containing 8 M UREA. Lysates were incubated at 65° C. for 15 min. Before SDS-PAGE separation, lysates were passed through a BD 1 ml sub-Q syringe attached to a 26G needle to reduce viscosity. 15 μl of individual samples (15-20 μg protein from whole cell extract) were separated by SDS-PAGE followed by western analysis.

TBK1 = assay: Western analysis of TBK1 activation in primary BMDMs stimulated with TLR ligands; format: cell-based
Description: as §2

[4] = system: Il-1b and Il-6 transcripts; assay: qPCR of TLR-induced Il-1b and Il-6 transcripts in primary BMDMs; format: cell-based; details: primary BMDMs pretreated with ActD 1.5 μg/ml for 40 min, TLR ligands 4 h
Description: (§3) Gene expression analysis and ELISA. RNA was isolated from cell cultures using Qiashedder (Qiagen) and GeneJET RNA Purification Kit (Life Technologies). Purified RNA was analyzed for gene expression on a CFX384 real time cycler (Bio-rad) using TaqMan RNA-to-CT 1-Step Kit (Applied Biosystems) with probes specific for Rsad2, II-1b, Il-6 and Gapdh.

PARP = PARP cleavage by western analysis; format: cell-based, murine; details: Myd88-/-/Trif-/- iBMDMs expressing MyD88-RIP3, TLR ligands or staurosporine 1 μM, 6 hr
Description: as §2

myddosome = biological target: T1, myddosome (UniProt P0AES6+P22366); assay: Coumermycin-induced myddosome formation in Myd88-/-/Trif-/- iBMDMs expressing 3×FLAG-MyD88-GyrB; format: cell-based, murine; details: CM 0.5 μM
T1 construct: expressed in transfected cells; host or cells: Myd88-/-/Trif-/- iBMDMs, retroviral transduction (pMSCV-IRES-GFP)
Description: as §3
For myddosome isolation, iBMDMs (5×10^6) were stimulated with ligands for indicated times, and subsequently lysed in 400 μL of lysis buffer containing 50 mM Tris-HCl (pH 7.5), 150 mM NaCl, 5% Glycerol, 1 mM Sodium dioxycholate and 1% NP40. Protease inhibitors and phosphatase inhibitors were added prior to cell lysis. Lysates were spun at top speed for 15 minutes at a table-top centrifuge in the cold room (at 4° C.). The cleared supernatants were collected and 80 μL of the supernatants was saved as sample inputs. 0.5 μg of the anti-MyD88 antibody with 15 15 μl (bed volume) of protein G sepharose (for endogenous MyD88) or 15 μl (bed volume) of anti-FLAG (M2) agarose (for 3×FLAG-MyD88 alleles) was added to the remaining supernatants and the incubation were allowed to proceed for 4-5 hr at 4° C. on a nutator. The beads containing the protein complexes were then washed for 3 times with lysis buffer, and 60 μL of SDS loading buffer was added. The protein complexes were further eluted by heating at 65° C. for 15 minutes. A portion of eluted protein complexes (20 μl) were separated by SDS-PAGE and analyzed by western blot.
Cells were fixed at room temperature for 30 min, permeabilized with 0.2% Triton X-100 for 5 min at room temperature and […] with 2% goat serum in PBS supplemented with 50 mM ammonium chloride. Primary and secondary antibody staining were performed following product instructions. Working concentrations of primary antibodies were used as the following: pTBK1 (1:100), pp 38 (1:100), FLAG (M2) (1:100). Samples were imaged by the Zeiss 880 laser scanning confocal microscope.

TLR4 = biological target: T2, TLR4 (Mus musculus, UniProt Q9JHF9+Q9QUK6); assay: Isolation of protein complexes associated with activated TLR4; format: cell-based; details: iBMDMs, LPS 100 ng/ml, within minutes
T2 construct: endogenous in cells; host or cells: WT iBMDMs
Description: For isolation of protein complexes associated with activated TLRs, cells were lysed using a modified lysis buffer containing 50 mM HEPES, 150 mM NaCl, 0.5% DDM (n-Dodecyl-β-D-Maltoside), 0.05% CHS (cholesteryl hemisuccinate). This buffer is suitable for the isolation of membrane protein complexes. 0.5 μg of biotinylated anti-TLR4 (Sal5-21) antibody was used (per sample) to capture the TLR4 signaling complex with streptavidin agarose. 15 μl (bed volume) of anti-HA agarose was used (per sample) to capture the TLR9-HA signaling complex. Immunoprecipitates were washed 3 times with the modified lysis buffer and analyzed by western blot.

IRF3 = assay: Western analysis of IRF3 activation in primary BMDMs stimulated with TLR ligands; format: cell-based
Description: as §2

T2 sequence (Q8R4K2 whole entry): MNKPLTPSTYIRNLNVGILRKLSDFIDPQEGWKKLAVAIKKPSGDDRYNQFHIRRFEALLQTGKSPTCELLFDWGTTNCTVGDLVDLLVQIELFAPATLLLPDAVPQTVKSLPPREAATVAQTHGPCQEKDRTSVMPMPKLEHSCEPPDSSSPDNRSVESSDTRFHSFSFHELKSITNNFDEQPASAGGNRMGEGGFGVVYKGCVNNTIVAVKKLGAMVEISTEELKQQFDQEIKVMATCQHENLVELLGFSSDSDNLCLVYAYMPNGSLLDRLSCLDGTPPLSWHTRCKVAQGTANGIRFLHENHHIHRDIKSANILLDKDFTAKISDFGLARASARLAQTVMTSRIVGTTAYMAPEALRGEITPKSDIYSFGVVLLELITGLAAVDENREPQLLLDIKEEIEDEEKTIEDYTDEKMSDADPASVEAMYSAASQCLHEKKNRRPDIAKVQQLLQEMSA
T2 sequence (Q9QUK6 26-835): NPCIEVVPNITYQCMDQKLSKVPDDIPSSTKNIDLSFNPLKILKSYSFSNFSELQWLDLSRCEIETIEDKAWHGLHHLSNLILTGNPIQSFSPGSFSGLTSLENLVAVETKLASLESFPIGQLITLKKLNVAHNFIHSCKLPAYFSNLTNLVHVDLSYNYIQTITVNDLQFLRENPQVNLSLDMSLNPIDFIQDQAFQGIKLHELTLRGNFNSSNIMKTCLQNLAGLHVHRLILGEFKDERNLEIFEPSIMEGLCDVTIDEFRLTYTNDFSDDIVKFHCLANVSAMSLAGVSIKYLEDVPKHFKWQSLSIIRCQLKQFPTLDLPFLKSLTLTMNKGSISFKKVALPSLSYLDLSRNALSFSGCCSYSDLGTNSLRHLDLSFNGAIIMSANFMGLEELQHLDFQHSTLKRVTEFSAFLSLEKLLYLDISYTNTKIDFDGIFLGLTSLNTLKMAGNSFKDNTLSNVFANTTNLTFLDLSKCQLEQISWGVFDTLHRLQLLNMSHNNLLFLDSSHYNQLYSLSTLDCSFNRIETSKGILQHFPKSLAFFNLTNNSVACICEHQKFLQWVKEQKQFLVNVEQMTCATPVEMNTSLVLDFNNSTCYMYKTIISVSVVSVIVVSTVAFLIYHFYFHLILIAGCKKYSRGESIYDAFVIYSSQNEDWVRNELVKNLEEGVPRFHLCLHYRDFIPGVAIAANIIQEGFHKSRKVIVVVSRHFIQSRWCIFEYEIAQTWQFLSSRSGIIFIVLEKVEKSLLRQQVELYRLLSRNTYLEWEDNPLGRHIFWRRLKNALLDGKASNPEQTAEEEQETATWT
T2 sequence (Q9JHF9 19-160): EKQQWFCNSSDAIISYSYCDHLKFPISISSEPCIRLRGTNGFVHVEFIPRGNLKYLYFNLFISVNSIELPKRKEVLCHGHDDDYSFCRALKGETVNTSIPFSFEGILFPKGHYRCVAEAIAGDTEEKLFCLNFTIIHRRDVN
T2 sequence (P22366 whole entry, further chain): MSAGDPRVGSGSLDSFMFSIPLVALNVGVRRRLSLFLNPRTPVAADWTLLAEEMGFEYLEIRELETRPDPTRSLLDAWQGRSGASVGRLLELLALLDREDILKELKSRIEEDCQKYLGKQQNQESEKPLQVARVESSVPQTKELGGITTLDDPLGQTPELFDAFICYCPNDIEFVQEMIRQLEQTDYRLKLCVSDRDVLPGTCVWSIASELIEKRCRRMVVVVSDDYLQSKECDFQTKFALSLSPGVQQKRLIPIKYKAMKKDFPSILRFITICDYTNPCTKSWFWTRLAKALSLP
T2 sequence (Q8CFA1 whole entry, further chain): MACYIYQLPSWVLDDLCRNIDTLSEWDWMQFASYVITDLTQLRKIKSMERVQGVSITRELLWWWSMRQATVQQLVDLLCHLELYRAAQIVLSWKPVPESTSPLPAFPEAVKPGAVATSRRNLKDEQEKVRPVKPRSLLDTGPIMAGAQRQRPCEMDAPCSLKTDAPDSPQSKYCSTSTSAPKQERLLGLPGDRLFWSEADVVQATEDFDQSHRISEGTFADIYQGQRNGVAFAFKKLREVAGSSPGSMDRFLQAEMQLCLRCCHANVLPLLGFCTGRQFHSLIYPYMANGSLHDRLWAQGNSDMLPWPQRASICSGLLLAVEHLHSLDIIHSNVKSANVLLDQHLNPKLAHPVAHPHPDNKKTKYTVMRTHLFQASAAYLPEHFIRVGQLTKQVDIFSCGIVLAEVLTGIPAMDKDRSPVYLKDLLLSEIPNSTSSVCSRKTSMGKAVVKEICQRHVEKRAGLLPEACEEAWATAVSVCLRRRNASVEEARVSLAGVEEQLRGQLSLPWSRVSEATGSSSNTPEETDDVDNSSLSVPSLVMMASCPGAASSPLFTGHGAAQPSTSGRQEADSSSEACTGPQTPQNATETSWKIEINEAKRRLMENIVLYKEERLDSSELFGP

## OCC1OC(O)CC(O)C1O (stereo not shown) [2-DG]
Primary BMDMs [1]
  TLR-induced ECAR increase: blocked
glycolysis
  cytokine gene transcription versus translation: uncoupled cytokine gene transcription from translation
  host responses at the receptor proximal: did not affect

## O=C(NCCCNc1nc(Nc2cccc(NC(=O)N3CCCC3)c2)ncc1I)c1cccs1 [BX795]
Primary BMDMs [1]
  TLR-induced ECAR increase: dampened

## CC(C)S(=O)(=O)c1ccc2nccc(Nc3ccc4scnc4c3)c2c1 [GSK872]
[2]; GSK872 2.5 μM
  morphological changes of TLR-stimulated MyD88-RIP3 cells with inhibitor pre-treatment: could be suppressed
Myd88-/-/Trif-/- iBMDMs
  TLR-induced LDH release (cell death) with inhibitor: blocked
  TLR-induced PI staining (membrane rupture) with inhibitor: blocked

## O=C(NCCCNc1nc(Nc2cccc(CN3CCOCC3)c2)ncc1C1CC1)C1CCC1 [MRT67307]
Primary BMDMs [1]
  TLR-induced ECAR increase: dampened

## CN1C(=O)C(Cc2c[nH]c3ccccc23)NC1=S (stereo not shown) [Nec-1]
Primary BMDMs [3]; primary BMDMs
  prevention of ZVAD plus LPS induced necroptosis: could be prevented
Myd88-/-/Trif-/- iBMDMs
  TLR-induced LDH release (cell death) with inhibitor: unaffected
  TLR-induced PI staining (membrane rupture) with inhibitor: unaffected

## CCOCc1nc2c(N)nc3ccccc3c2n1CC(C)(C)O [R848]
Primary BMDMs [1]
  ECAR: increased ECAR rapidly
  mitochondrial oxygen consumption (OCR): without causing discernible changes
AKT
  AKT phosphorylation: induced AKT phosphorylation
TBK1
  TBK1 activation (pTBK1): activated

## COC(=O)C[C@H](NC(=O)[C@H](C)NC(=O)[C@@H](NC(=O)OCc1ccccc1)C(C)C)C(=O)CF [ZVAD] (Cbz-Val-Ala-Asp(OMe)-CH2F)
Primary BMDMs [3]; ZVAD 10 μM pre-treatment followed by LPS
  necroptosis (LDH release) of primary BMDMs: induced necroptosis
Myd88-/-/Trif-/- iBMDMs
  TLR-induced LDH release (cell death) with inhibitor: failed to prevent
  TLR-induced PI staining (membrane rupture) with inhibitor: failed to prevent

## Cc1c2oc3c(C)ccc(C(=O)N[C@@H]4C(=O)N[C@H](C(C)C)C(=O)N5CCC[C@H]5C(=O)N(C)CC(=O)N(C)[C@@H](C(C)C)C(=O)O[C@@H]4C)c3nc-2c(C(=O)N[C@@H]2C(=O)N[C@H](C(C)C)C(=O)N3CCC[C@H]3C(=O)N(C)CC(=O)N(C)[C@@H](C(C)C)C(=O)O[C@@H]2C)c(N)c1=O [actinomycin D] (I: T[dV]P[Sar][NMeV] / II: T[dV]P[Sar][NMeV]; ester I:1-I:C, II:1-II:C; linker I:N-II:N via Actinocin(9to1))
Primary BMDMs [1]
  TLR-induced ECAR increase: still able to increase ECAR
[4]
  TLR-induced transcription of Il-1b and Il-6: prevented

## CN[C@@H]1C[C@H]2O[C@@](C)([C@@H]1OC)n1c3ccccc3c3c4c(c5c6ccccc6n2c5c31)C(=O)NC4 [staurosporine]
[2]; 1 hr post-stimulation, TLR ligands or staurosporine 1 μM
  cell morphology: membrane blebbing, generation of apoptotic bodies/vesicles
PARP
  PARP cleavage: induced PARP cleavage

## coumermycin [CM]
myddosome
  myddosome formation: induced myddosome formation
myddosome; 30 min
  p38 activation (nuclear staining pattern): clearly activated
  pTBK1 staining of MyD88 specks: stained positive for pTBK1
  phosphorylated p38 (pp38) within MyD88 specks: not detected within MyD88 specks
myddosome; 30 min, immunofluorescence
  cells with distinct MyD88 specks: more than 60%
myddosome; 4 hr, qPCR
  Il-1b expression: comparable to that induced by LPS and P3C treatment

## lipopolysaccharide [LPS]
Primary BMDMs [1]
  ECAR: increased ECAR rapidly
  mitochondrial oxygen consumption (OCR): without causing discernible changes
AKT
  AKT phosphorylation: induced
TBK1
  TBK1 activation (pTBK1): activated
TLR4
  recruitment of endogenous MyD88, IRAK2 and IRAK4 to TLR4: inducibly recruited
IRF3
  IRF3 activation (pIRF3): activated
